# Patent US12171734B2, “Pathogenic bacteria” (Sporegen Limited, priority 2018, dated 2024)
# System: multi-drug resistant M. tuberculosis (Peru isolate)
# Assay: microbe, parasite or virus in culture
# Assay type: cell-based
# Details: Mycobacterium tuberculosis, 240 h, read-out: MIC, MDR-TB Peru isolate
row,SMILES,MIC [µg/mL]
1,NNC(=O)c1ccncc1 [Isoniazid],> 4
2,CO[C@H]1/C=C/O[C@@]2(C)Oc3c(C)c(O)c4c(O)c(c(/C=N/N5CCN(C)CC5)c(O)c4c3C2=O)NC(=O)/C(C)=C\C=C\[C@H](C)[C@H](O)[C@@H](C)[C@@H](O)[C@@H](C)[C@H](OC(C)=O)[C@@H]1C [Rifampicin],> 4
